Measurements reported in US11851440B2, “Modulators of eukaryotic initiation factor 2B, compositions and methods” (Denali Therapeutics Inc., priority 2017, dated 2023).

Tested on: ISR pathway (ATF4 translation)
Assay: ATF4 Nano Luciferase reporter integrated stress response (ISR) assay in H4 ATF4-NLuc cells
Settings: Homo sapiens, H4 ATF4-NLuc (clone 17) cells; compound 30 minutes, then 50 um sodium arsenite for 6 hours; luminescence readout

| IC50 | Structure (SMILES) |
| --- | --- |
| 13.7 nM | O=C(COc1ccc(Cl)c(F)c1)NC12CC(c3nnc([C@H]4C[C@@H](OC(F)F)C4)o3)(C1)C2 [Example 51] |
| 35.5 nM | O=C(COc1ccc(C(F)(F)F)nc1)NC12CC(n3cnc(C4CC(OC(F)(F)F)C4)c3)(C1)C2 (centres unmarked) [Example 151] |
| 1.9 nM | O=C(COc1ccc(Cl)c(F)c1)NC12CC(n3cnc([C@H]4C[C@@H](OC(F)(F)F)C4)c3)(C1)C2 [Example 61, 2-(4-chloro-3-fluoro-phenoxy)-N-[3-[4-[3-cis-(trifluoromethoxy)cyclobutyl]imidazol-1-yl]-1-bicyclo[1.1.1]pentanyl]acetamide] |
| 13.4 nM | O=C(COc1ccc(C(F)(F)F)nc1)NC12CC(n3cnc(-c4ccc(F)c(F)c4)c3)(C1)C2 [Example 161] |

Same assay, conditions: Homo sapiens, read-out: Activity (IC50)

| Structure (SMILES) | IC50 |
| --- | --- |
| CC(C)(C)[Si](C)(C)O[C@H]1C[C@@H](c2nnc(C34CC(NC(=O)COc5ccc(Cl)cc5)(C3)C4)o2)C1 [Example 260] | < 1000 nM |

Same assay, conditions: Homo sapiens, read-out: Activity (IC50), H4 ATF4-NLuc (clone 17) cells; compound 30 minutes, then 50 um sodium arsenite for 6 hours; luminescence readout

| Structure (SMILES) | IC50 |
| --- | --- |
| O=C(CO[C@@H]1CC[C@H](OC(F)(F)F)C1)NC12CC(c3nnc([C@H]4C[C@@H](OC(F)(F)F)C4)o3)(C1)C2 [Example 114, N-[3-[5-[3-cis-(trifluoromethoxy)cyclobutyl]-1,3,4-oxadiazol-2-yl]-1-bicyclo[1.1.1]pentanyl]-2-[3-cis-(trifluoromethoxy)cyclopentoxy]acetamide] | 1000 to 10000 nM |
| O=C(COC1CC(OC(F)(F)F)C1)NC12CC(c3nnc(-c4cnn(CC(F)(F)F)c4)o3)(C1)C2 (stereo not drawn) [Example 118, N-[3-[5-[1-(2,2,2-trifluoroethyl)pyrazol-4-yl]-1,3,4-oxadiazol-2-yl]-1-bicyclo[1.1.1]pentanyl]-2-[3-cis-(trifluoromethoxy)cyclobutoxy]acetamide] | 1000 to 10000 nM |
| CN(CCO[C@H]1C[C@@H](OC(F)(F)F)C1)C12CC(NC(=O)COc3ccc(Cl)c(F)c3)(C1)C2 [Example 132, 2-(4-chloro-3-fluoro-phenoxy)-N-[3-[methyl-[2-[3-cis-(trifluoromethoxy)cyclobutoxy]ethyl]amino]-1-bicyclo[1.1.1]pentanyl]acetamide] | < 1000 nM |
| O=C(CO[C@H]1C[C@@H](OC(F)(F)F)C1)NC12CC(c3cn(-c4ccc(Cl)c(F)c4)nn3)(C1)C2 [Example 77, N-[3-[1-(4-chloro-3-fluoro-phenyl)triazol-4-yl]-1-bicyclo[1.1.1]pentanyl]-2-[3-cis-(trifluoromethoxy)cyclobutoxy]acetamide] | < 1000 nM |
| O=C(COc1ccc(Cl)c(F)c1)NC12CC(c3nnc(CN4CC(F)(F)C4)o3)(C1)C2 [Example 129, 2-(4-chloro-3-fluoro-phenoxy)-N-[3-[5-[(3,3-difluoroazetidin-1-yl)methyl]-1,3,4-oxadiazol-2-yl]-1-bicyclo[1.1.1]pentanyl]acetamide] | 1000 to 10000 nM |
| O=C(COc1ccc(Cl)cc1)NC12CC(c3nnc(COC4CCC4)o3)(C1)C2 [Example 5, 2-(4-Chlorophenoxy)-N-[1-[5-(cyclobutoxymethyl)-1,3,4-oxadiazol-2-yl]-3-bicyclo[1.1.1]pentanyl]acetamide] | < 1000 nM |
| O=C(CO[C@H]1C[C@@H](OC(F)(F)F)C1)NC12CC(c3nnc([C@H]4C[C@@H](COC(F)(F)F)C4)o3)(C1)C2 [Example 106, 2-[3-cis-(trifluoromethoxy)cyclobutoxy]-N-[3-[5-[3-cis-(trifluoromethoxymethyl)cyclobutyl]-1,3,4-oxadiazol-2-yl]-1-bicyclo[1.1.1]pentanyl]acetamide] | < 1000 nM |
| CCO[C@H]1C[C@@H](OCC(=O)NC23CC(n4cnc(-c5ccc(Cl)c(F)c5)c4)(C2)C3)C1 [Example 240] | < 1000 nM |
| O=C(CO[C@H]1C[C@@H](OC(F)(F)F)C1)NC12CC(c3nc4ccc(Cl)cc4o3)(C1)C2 [Example 233] | < 1000 nM |
| O=C(NC12CC(c3nnc([C@H]4C[C@@H](OC(F)(F)F)C4)o3)(C1)C2)c1cn2cc(F)c(Cl)cc2n1 [Example 194] | < 1000 nM |
| O=C(CO[C@H]1C[C@@H](OC(F)(F)F)C1)NC12CC(n3cnc([C@H]4C[C@@H](OC(F)(F)F)C4)c3)(C1)C2 [Example 63, 2-[3-cis-(trifluoromethoxy)cyclobutoxy]-N-[3-[4-[3-cis-(trifluoromethoxy)cyclobutyl]imidazol-1-yl]-1-bicyclo[1.1.1]pentanyl]acetamide] | < 1000 nM |
| O=C(NC12CC(c3nnc([C@H]4C[C@@H](OC(F)(F)F)C4)o3)(C1)C2)c1cn2ccc(Cl)cc2n1 [Example 104, 7-chloro-N-[3-[5-[3-cis-(trifluoromethoxy)cyclobutyl]-1,3,4-oxadiazol-2-yl]-1-bicyclo[1.1.1]pentanyl]imidazo[1,2-a]pyridine-2-carboxamide] | < 1000 nM |
| O=C(NC12CC(c3nnc([C@H]4C[C@H](OC(F)(F)F)C4)o3)(C1)C2)OCc1ccc(Cl)cc1 [Example 111, (4-chlorophenyl)methyl-N-[3-[5-[3-trans-(trifluoromethoxy)cyclobutyl]-1,3,4-oxadiazol-2-yl]-1-bicyclo[1.1.1]pentanyl]carbamate] | < 1000 nM |
| O=C(NC12CC(c3nnc([C@H]4C[C@@H](OC(F)(F)F)C4)o3)(C1)C2)c1cn2ccc(C(F)(F)F)cc2n1 [Example 185] | < 1000 nM |
| O=C(CO[C@H]1C[C@@H](OC(F)(F)F)C1)NC12CC(c3noc(-c4ccc(Cl)cc4)n3)(C1)C2 [Example 203] | < 1000 nM |
| O=C(NC12CC(c3nnc([C@H]4C[C@@H](OC(F)(F)F)C4)o3)(C1)C2)C1Cc2cc(Cl)ccc2O1 (stereo partly drawn) [Example 76, 5-chloro-N-[3-[5-[3-cis-(trifluoromethoxy)cyclobutyl]-1,3,4-oxadiazol-2-yl]-1-bicyclo[1.1.1]pentanyl]-2,3-dihydrobenzofuran-2-carboxamide] | < 1000 nM |
| O=C(COc1ccc(Cl)c(F)c1)NC12CC(n3cnc([C@H]4C[C@H](OC(F)(F)F)C4)c3)(C1)C2 [Example 62, 2-(4-chloro-3-fluoro-phenoxy)-N-[3-[4-[3-trans-(trifluoromethoxy)cyclobutyl]imidazol-1-yl]-1-bicyclo[1.1.1]pentanyl]acetamide] | < 1000 nM |

Continued, values first:

| IC50 | Structure (SMILES) |
| --- | --- |
| < 1000 nM | C[C@H]1C[C@@H]1c1nnc(C23CC(NC(=O)COc4ccc(Cl)c(F)c4)(C2)C3)o1 (single isomer, unassigned) [Example 112, 2-(4-chloro-3-fluoro-phenoxy)-N-[1-[5-[2-methylcyclopropyl]-1,3,4-oxadiazol-2-yl]-3-bicyclo[1.1.1]pentanyl]acetamide] |
| < 1000 nM | O=C(NC12CC(c3nnc([C@H]4C[C@@H](OC(F)(F)F)C4)o3)(C1)C2)C(O)Cc1ccc(Cl)cc1 (some centres unmarked) [Example 253] |
| < 1000 nM | O=C(COc1ccc(Cl)c(F)c1)NC12CC(c3nnc([C@H]4C[C@@H](OC(F)F)C4)o3)(C1)C2 [Example 51] |
| < 1000 nM | O=C(COc1ccc(C(F)(F)F)nc1)NC12CC(n3cnc(C4CC(OC(F)(F)F)C4)c3)(C1)C2 (centres unmarked) [Example 151] |
| < 1000 nM | O=C(COc1ccc(Cl)c(F)c1)NC12CC(N3CCC(COC(F)(F)F)C3=O)(C1)C2 (centres unmarked) [Example 222] |
| < 1000 nM | O=C(NC12CC(c3nnc([C@H]4C[C@@H](OC(F)(F)F)C4)o3)(C1)C2)C1=NO[C@H](c2ccccc2)C1 [Example 100, cis-(S)-5-phenyl-N-(3-(5-(3-(trifluoromethoxy)cyclobutyl)-1,3,4-oxadiazol-2-yl)bicyclo[1.1.1]pentan-1-yl)-4,5-dihydroisoxazole-3-carboxamide] |
| < 1000 nM | O=C(COc1ccc(Cl)c(F)c1)NC12CC(n3cnc([C@H]4C[C@@H](OC(F)(F)F)C4)c3)(C1)C2 [Example 61, 2-(4-chloro-3-fluoro-phenoxy)-N-[3-[4-[3-cis-(trifluoromethoxy)cyclobutyl]imidazol-1-yl]-1-bicyclo[1.1.1]pentanyl]acetamide] |
| < 1000 nM | O=C(COC1CCC1)NC12CC(c3nnc(COc4ccc(Cl)c(F)c4)o3)(C1)C2 [Example 46] |
| < 1000 nM | O=C(COc1ccc(Cl)c(F)c1)NC12CC(c3nnc([C@H]4C[C@@H](n5nccn5)C4)o3)(C1)C2 [Example 244] |
| < 1000 nM | O=C(COc1ccc(C(F)(F)F)nc1)NC12CC(n3cnc(-c4ccc(F)c(F)c4)c3)(C1)C2 [Example 161] |
| < 1000 nM | CC(COC(F)(F)F)OCC(=O)NC12CC(n3cnc(-c4ccc(Cl)c(F)c4)c3)(C1)C2 (centres unmarked) [Example 262] |
| < 1000 nM | O=C(CO[C@H]1C[C@@H](OC(F)(F)F)C1)NC12CC(n3cnc(-c4ccc(C(F)(F)F)cc4CO)c3)(C1)C2 [Example 272] |
| < 1000 nM | O=C(NC12CC(c3nnc(-c4ccc(Cl)c(F)c4)o3)(C1)C2)[C@H]1CC[C@H](COC(F)(F)F)CC1 [Example 235] |
| < 1000 nM | O=C(COc1ccc(Cl)c(F)c1)NC12CC(c3nnc(CN4CCC(F)(F)C4)o3)(C1)C2 [Example 125, 2-(4-chloro-3-fluoro-phenoxy)-N-[3-[5-[(3,3-difluoropyrrolidin-1-yl)methyl]-1,3,4-oxadiazol-2-yl]-1-bicyclo[1.1.1]pentanyl]acetamide] |
| < 1000 nM | O=C(NC12CC(c3nnc([C@H]4C[C@@H](OC(F)(F)F)C4)o3)(C1)C2)c1cnc2cc(Cl)ccc2c1 [Example 168] |
| < 1000 nM | CC1C(c2nnc(C34CC(NC(=O)COc5ccc(Cl)c(F)c5)(C3)C4)o2)CN1CC(F)(F)F (centres unmarked) [Example 121, 2-(4-chloro-3-fluoro-phenoxy)-N-[3-[5-[2-methyl-1-(2,2,2-trifluoroethyl)azetidin-3-yl]-1,3,4-oxadiazol-2-yl]-1-bicyclo[1.1.1]pentanyl]acetamide] |
| < 1000 nM | O=C(CO[C@H]1C[C@@H](OC(F)(F)F)C1)NC12CC(c3nnc(-c4ccc(C(F)(F)F)cn4)o3)(C1)C2 [Example 199] |
| < 1000 nM | O=C(CO[C@H]1C[C@@H](OC(F)(F)F)C1)NC12CC(c3nnc(-c4ccc(Cl)cn4)s3)(C1)C2 [Example 241] |
| < 1000 nM | O=C(NC12CC(c3nnc(C4CC(OC(F)(F)F)C4)o3)(C1)C2)C(CO)Oc1ccc(Cl)cc1 (centres unmarked) [Example 232] |
| < 1000 nM | O=C(COc1ccc(Cl)c(F)c1)NC12CC(c3cn([C@H]4C[C@H](OC(F)(F)F)C4)nn3)(C1)C2 [Example 64, 2-(4-chloro-3-fluoro-phenoxy)-N-[3-[1-[3-trans-(trifluoromethoxy)cyclobutyl]triazol-4-yl]-1-bicyclo[1.1.1]pentanyl]acetamide] |
| < 1000 nM | O=C(COc1ccc(Cl)c(F)c1)NC12CC(c3nnc([C@H]4C[C@@H](n5ccnn5)C4)o3)(C1)C2 [Example 245] |
| < 1000 nM | O=C(COc1ccc(Cl)c(F)c1)NC12CC(c3cnn([C@H]4C[C@@H](OC(F)(F)F)C4)n3)(C1)C2 [Example 79, 2-(4-chloro-3-fluoro-phenoxy)-N-[3-[2-[3-cis-(trifluoromethoxy)cyclobutyl]triazol-4-yl]-1-bicyclo[1.1.1]pentanyl]acetamide] |
